Test: Measurement of solubility of sulfites in distilled water
Settings: for Concentration, Calculated value: calculated from mass and molecular weight; for Concentration, Measured value (sulfite concentration, solubility): method 0-A
Experimental: To a cuvette for measuring absorbance (1×1×4 cm, manufactured by Hitachi High-Technologies Co.), 3 ml of 0.1 N hydrochloric acid (manufactured by Wako Pure Chemical Co., Ltd.) was added. To the cuvette, 30 μl of a sulfite solution diluted with distilled water was added, the cuvette was covered with parafilm, and inverted 3 times to mix the solutions.
Then, the mass, volume and pH at that time were measured. In addition, with regard to each solution, the sulfite concentration was measured in accordance with the method 0-A described above.
With regard to the concentration in the table, the calculated value represents the sulfite concentration (M (mol/l)) calculated from the mass and the molecular weight of each dissolved sulfite. In addition, the measured value represents the sulfite concentration (M) measured in accordance with the method 0-A described above.

Molecule	pH of saturated solution (30° C.)	Concentration, Calculated value (30° C.) [M]	Concentration, Measured value (sulfite concentration, solubility) (30° C.) [M]	pH of saturated solution (70° C.)	Concentration, Calculated value (70° C.) [M]	solubility (30° C., distilled water, saturated) [mg/mL]
O=S([O-])O.[Na+] [Sodium bisulfite, sodium bisulfite]	4.4	5.2	5.0	4.5	6.5	
O=S([O-])[O-].[Na+].[Na+] [Sodium sulfite, sodium sulfite]	10.3			10.5		200
ammonium sulfite monohydrate			3.5			
